Data taken from patent US8859541B2, “6-alkynylpyridines” (Boehringer Ingelheim International GmbH, priority 2012, dated 2014).

Key:
XIAP BIR3 = target: T1, XIAP BIR3 (Homo sapiens, UniProt P98170); test: XIAP BIR3 binding assay (DELFIA), displacement of SMAC peptide; conditions: GST-fusion BIR3 domain (aa 241 to 356) 10 nM, SMAC peptide 10 nM; activity of the (S)-isomers
T1 construct: covering amino acids 241 to 356; XIAP BIR3; made in house; host or cells: E. coli
Outline: (§1)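 Each BIR3 domain (10 nM) incubated with biotinylated N-terminal SMAC peptide (10 nM) and compound for 1 h at room temp in Tris/NaCl buffer with BSA, DTT and Triton X-100. Captured on streptavidin plates; bound BIR3 detected by Eu-labelled anti-GST time-resolved fluorescence, giving IC50 values.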

cIAP1 BIR3 = target: T2, cIAP1 BIR3 (Homo sapiens, UniProt Q13490); test: cIAP1 BIR3 binding assay (DELFIA), displacement of SMAC peptide; conditions: GST-fusion BIR3 domain (aa 256 to 363) 10 nM, SMAC peptide 10 nM; activity of the (S)-isomers
T2 construct: covering amino acids 256 to 363; cIAP1 BIR3; made in house; host or cells: E. coli
T2 sequence (Q13490 256-363): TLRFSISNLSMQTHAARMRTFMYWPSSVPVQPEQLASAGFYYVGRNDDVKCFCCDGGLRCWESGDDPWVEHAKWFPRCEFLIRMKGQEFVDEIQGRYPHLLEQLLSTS
Outline: as §1

T1 sequence (P98170 241-356): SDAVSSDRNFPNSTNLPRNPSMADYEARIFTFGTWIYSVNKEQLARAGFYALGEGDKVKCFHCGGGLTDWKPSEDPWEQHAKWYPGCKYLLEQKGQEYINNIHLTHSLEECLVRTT

Row | IC50 (XIAP BIR3) [nM] | IC50 (cIAP1 BIR3) [nM] | Compound
1 | 97 | 31 | CNC(C)C(=O)Nc1ccc(-c2cncc(OC)c2)c(C#Cc2ccccc2)n1 (centres unmarked) [Example 121, N-[5-(5-methoxypyridin-3-yl)-6-(2-phenylethynyl)pyridin-2-yl]-2-(methylamino)propanamide]
2 | 148 | 23 | CNC(C)C(=O)Nc1ccc(-c2cncc(Cl)c2)c(C#Cc2ccccc2)n1 (centres unmarked) [Example 122, N-[5-(5-chloropyridin-3-yl)-6-(2-phenylethynyl)pyridin-2-yl]-2-(methylamino)propanamide]
3 | 121 | 25 | CNC(C)C(=O)Nc1ccc(-c2cncc(C#N)c2)c(C#Cc2ccccc2)n1 (centres unmarked) [Example 123, N-[5-(5-cyanopyridin-3-yl)-6-(2-phenylethynyl)pyridin-2-yl]-2-(methylamino)propanamide]
4 | 580 | 131 | CCOc1ccc(-c2ccc(NC(=O)C(C)NC)nc2C#Cc2ccccc2)cn1 (centres unmarked) [Example 125, N-[5-(6-ethoxypyridin-3-yl)-6-(2-phenylethynyl)pyridin-2-yl]-2-(methylamino)propanamide]
5 | 1010 | 166 | CNC(C)C(=O)Nc1ccc(-c2ccc(OC)nc2OC)c(C#Cc2ccccc2)n1 (centres unmarked) [Example 126, N-[5-(2,6-dimethoxypyridin-3-yl)-6-(2-phenylethynyl)pyridin-2-yl]-2-(methylamino)propanamide]
6 | 128 | 21 | CNC(C)C(=O)Nc1ccc(-c2cncc(C)c2)c(C#Cc2ccccc2)n1 (centres unmarked) [Example 127, 2-(methylamino)-N-[5-(5-methylpyridin-3-yl)-6-(2-phenyl-ethynyl)pyridin-2-yl]propanamide]
7 | 436 | 98 | CNC(C)C(=O)Nc1ccc(-c2ccc(N3CCCC3)nc2)c(C#Cc2ccccc2)n1 (centres unmarked) [Example 129, 2-(methylamino)-N-[6-(2-phenyl-ethynyl)-5-(6-pyrrolidin-1-ylpyridin-3-yl)pyridin-2-yl]-propanamide]
8 | 3200 | 172 | CNC(C)C(=O)Nc1ccc(-c2cccc3ccccc23)c(C#Cc2ccccc2)n1 (centres unmarked) [Example 130, 2-(methylamino)-N-[5-naphthalen-1-yl-6-(2-phenyl-ethynyl)pyridin-2-yl]propanamide]
9 | 326 | 97 | CNC(C)C(=O)Nc1ccc(-c2cc(F)cc(C(=O)OC)c2)c(C#Cc2ccccc2)n1 (centres unmarked) [Example 132, methyl 3-fluoro-5-[6-[[2-(methyl-amino)propanoyl]amino]-2-(2-phenylethynyl)pyridin-3-yl]-benzoate]
10 | 55 | 12 | CNC(C)C(=O)Nc1ccc(-c2cnn3ccccc23)c(C#Cc2ccccc2)n1 (centres unmarked) [Example 138, 2-(methylamino)-N-[6-(2-phenyl-ethynyl)-5-pyrazolo[1,5-a]-pyridin-3-ylpyridin-2-yl]propan-amide]
11 | 317 | 94 | CNC(C)C(=O)Nc1ccc(-c2cscc2C#N)c(C#Cc2ccccc2)n1 (centres unmarked) [Example 145, N-[5-(4-cyanothiophen-3-yl)-6-(2-phenylethynyl)pyridin-2-yl]-2-(methylamino)propanamide]
12 | 125 | 32 | CNC(C)C(=O)Nc1ccc(-c2ccc(C)nc2)c(C#Cc2ccccc2)n1 (centres unmarked) [Example 147, 2-(methylamino)-N-[5-(6-methylpyridin-3-yl)-6-(2-phenyl-ethynyl)pyridin-2-yl]propanamide]
13 | 195 | 80 | CNC(C)C(=O)Nc1ccc(-c2cncc(-c3ccccc3)c2)c(C#Cc2ccccc2)n1 (centres unmarked) [Example 149, 2-(methylamino)-N-[6-(2-phenyl-ethynyl)-5-(5-phenylpyridin-3-yl)pyridin-2-yl]propanamide]
14 | 102 | 22 | CNC(C)C(=O)Nc1ccc(-c2cnc(N3CCOCC3)nc2)c(C#Cc2ccccc2)n1 (centres unmarked) [Example 161, 2-(methylamino)-N-[5-(2-morpholin-4-ylpyrimidin-5-yl)-6-(2-phenylethynyl)pyridin-2-yl]-propanamide]
15 | 67 | 1 | Cc1noc(C)c1-c1ccc(NC(=O)C(C)N)nc1C#Cc1ccccc1 (centres unmarked) [Example 165, 2-amino-N-[5-(3,5-dimethyl-1,2-oxazol-4-yl)-6-(2-phenylethynyl)-pyridin-2-yl]propanamide]
16 | 151 | 3 | [2H]C([2H])([2H])NC(C)C(=O)Nc1ccc(-c2c(C)noc2C)c(C#Cc2ccccc2)n1 (centres unmarked) [Example 168, N-[5-(3,5-dimethyl-1,2-oxazol-4-yl)-6-(2-phenylethynyl)pyridin-2-yl]-2-(trideuteriomethylamino)propanamide]
17 | 51 | 1 | CNC(C)C(=O)Nc1ccc(-c2c(C)nc3ccccn23)c(C#Cc2ccccc2)n1 (centres unmarked) [Example 174, 2-(methylamino)-N-[5-(2-methyl-imidazo[1,2-a]pyridin-3-yl)-6-(2-phenylethynyl)pyridin-2-yl]-propanamide]
18 | 103 | 16 | CNC(C)C(=O)Nc1ccc(-c2ccc3c(c2)C(=O)NC3=O)c(C#Cc2ccccc2)n1 (centres unmarked) [Example 175, N-[5-(1,3-dioxoisoindol-5-yl)-6-(2-phenylethynyl)pyridin-2-yl]-2-(methylamino)propanamide]
19 | 50 | 23 | CNC(C)C(=O)Nc1ccc(-c2cc(C(=O)OC)cc(C(=O)OC)c2)c(C#Cc2ccccc2)n1 (centres unmarked) [Example 176, dimethyl 5-[6-[[2-(methylamino)-propanoyl]amino]-2-(2-phenyl-ethynyl)pyridin-3-yl]benzene-1,3-dicarboxylate]
20 | 337 | 92 | CNC(C)C(=O)Nc1ccc(-c2ccc3c(c2)C(=O)c2ccccc2-3)c(C#Cc2ccccc2)n1 (centres unmarked) [Example 177, 2-(methylamino)-N-[5-(9-oxofluoren-2-yl)-6-(2-phenyl-ethynyl)pyridin-2-yl]propanamide]
21 | 135 | 36 | CNC(=O)c1ccc(-c2ccc(NC(=O)C(C)NC)nc2C#Cc2ccccc2)cn1 (centres unmarked) [Example 182, N-methyl-5-[6-[[2-(methyl-amino)propanoyl]amino]-2-(2-phenylethynyl)pyridin-3-yl]-pyridine-2-carboxamide]
22 | 138 | 17 | CNC(C)C(=O)Nc1ccc(-c2nnc(Cl)c3ccccc23)c(C#Cc2ccccc2)n1 (centres unmarked) [Example 184, N-[5-(4-chlorophthalazin-1-yl)-6-(2-phenylethynyl)pyridin-2-yl]-2-(methylamino)propanamide]
23 | 16 | 1 | CNC(C)C(=O)Nc1ccc(-c2c(-c3ccncc3)nc3cc(C)ccn23)c(C#Cc2ccccc2)n1 (centres unmarked) [Example 185, 2-(methylamino)-N-[5-(7-methyl-2-pyridin-4-ylimidazo[1,2-a]-pyridin-3-yl)-6-(2-phenyl-ethynyl)pyridin-2-yl]propanamide]
24 | 151 | 16 | CNC(C)C(=O)Nc1ccc(-c2sc(C)nc2C)c(C#Cc2ccccc2)n1 (centres unmarked) [Example 186, N-[5-(2,4-dimethyl-1,3-thiazol-5-yl)-6-(2-phenylethynyl)pyridin-2-yl]-2-(methylamino)propanamide]
25 | 49 | 9 | CNC(C)C(=O)Nc1ccc(-c2ccc3ncn(C)c(=O)c3c2)c(C#Cc2ccccc2)n1 (centres unmarked) [Example 187, 2-(methylamino)-N-[5-(3-methyl-4-oxoquinazolin-6-yl)-6-(2-phenylethynyl)pyridin-2-yl]-propanamide]
